# Data reported in US20180272034A1, “USE OF CSA COMPOUNDS TO PREVENT MICROBIAL BUILD-UP OR FOULING OF MEDICAL IMPLANTS” (BRIGHAM YOUNG UNIVERSITY, priority 2017, published 2018).
# “And” between values parts separate entries of the source, which are not always exact repeats. Equal entries are not always repeated.
# Legend:
# [1] = system: methicillin-resistant Staphylococcus aureus (MRSA); test: Coated endotracheal tube segments, daily re-inoculation, growth in medium; assay type: cell-based; parameters: key to bacterial growth in medium, Day 1 / bacterial growth in medium, Day 10 / bacterial growth in medium, Day 2 / bacterial growth in medium, Day 3 / bacterial growth in medium, Day 4 / bacterial growth in medium, Day 5 / bacterial growth in medium, Day 6 / bacterial growth in medium, Day 7 / bacterial growth in medium, Day 8 / bacterial growth in medium, Day 9: N=no growth; G=growth
# Protocol: (§1) A hydrogel coating containing 10% CSA-131 HCl and 3% citric acid, relative to the hydrogel solids, was tested for antibacterial efficacy using endotracheal tube segments (5.0 mm). These tube segments (surface area of ca. 1.5 cm^2) were dip coated and cured to give coatings of approximately 10 microns. Coated tube segments were washed in phosphate buffered saline (PBS) for varied amounts of time before testing. Antibacterial testing involved immersing tube segments in 10% TSB in PBS (1.0 mL) and inoculating with Pseudomonas aeruginosa (PA01)@10^6 colony forming units (CFU). Samples were incubated for 24 h, and bacterial growth in the medium was assayed visually (i.e., turbidity in the medium is caused by unrestricted bacterial growth). […] And the converse is true: if growth is supported in the medium that the device is colonized, to some extent.
# (§2) After 24 h of incubation, tube segments were immersed in fresh growth media (10% TSB in PBS, 1 mL), re-inoculated, and incubated. […] Experiments were performed in triplicate. N=no growth, G=growth.
# (§3) Antibacterial activity of a hydrogel coating (ca. 10 microns) containing CSA-131 2-NDSA (10% by weight relative to hydrogel solids) was determined as described in Example 8 using methicillin-resistant Staphylococcus aureus (MRSA) and Pseudomonas aeruginosa (PA01).
# [2] = Hydrogel coating stability and reaction with ethylene oxide (ETO)
# Protocol: Releases of CSA-131 from hydrogel-based coatings were investigated, including examining coating stability and reaction of the coating with ethylene oxide (ETO) during sterilization processes. […] To mask this reactivity, coatings were prepared including varies percentages of citric acid to form non-volatile salts of the CSA compound.
# Using a jet mill (Fluid Energy), CSA-131 2-NDSA was milled to an average particle size of 200 nm.
# [3] = system: Pseudomonas aeruginosa (PA01); test: Coated endotracheal tube segments, daily re-inoculation, growth in medium; assay type: cell-based; parameters: key to bacterial growth in medium, Day 1 / bacterial growth in medium, Day 2 / bacterial growth in medium, Day 3 / bacterial growth in medium, Day 4 / bacterial growth in medium, Day 5 / bacterial growth in medium, Day 6 / bacterial growth in medium, Day 7 / bacterial growth in medium, Day 10 / bacterial growth in medium, Day 8 / bacterial growth in medium, Day 9: N=no growth; G=growth
# Protocol: as §1, §2, §3
# PA01 = test: Drip flow system, whole coated endotracheal tubes; assay type: cell-based, Pseudomonas aeruginosa; settings: hydrogel 10% CSA-131 2-NDSA; three inoculations of 10^7 CFU, 24 h; detection limit 10 CFU
# Protocol: At eight-hour intervals, bacteria (PA01, 10^6 CFU/mL) were passed through the tubes for 10 min (total of 10^7 CFU) at each interval. At a time point 30 min after introduction of bacteria, the growth medium flowing through the tubes was collected and plated to determine the number of bacterial colonies present. After 24 h, tubes were removed and sections (5 mm) were cut from above and below the cuff. These were sonicated in a neutralizing medium and the resulting solution was plated to quantify bacterial biofilm growth.
# [4] = three replicates, hydrogel coating 10% CSA-131 2-NDSA, re-inoculated every 24 h
# [5] = PA01, three replicates, hydrogel coating 10% CSA-131 2-NDSA, re-inoculated every 24 h
smiles,measurement,setting,value
CCCCCCCCCCCCNCCC[C@@H](C)[C@H]1CC[C@H]2[C@@H]3[C@H](OCCCN)C[C@@H]4C[C@H](OCCCN)CC[C@]4(C)[C@H]3C[C@H](OCCCN)[C@]12C.O=S(=O)(O)c1cccc2c(S(=O)(=O)O)cccc12.O=S(=O)(O)c1cccc2c(S(=O)(=O)O)cccc12 [CSA-131 2-NDSA],time coating prevented bacterial growth,"[1]; hydrogel coating ca. 10 microns, 10% CSA-131 2-NDSA",eight
same,"bacterial growth in medium, Day 1",[1]; [4],N
same,"bacterial growth in medium, Day 2",[1]; [4],N
same,"bacterial growth in medium, Day 3",[1]; [4],N
same,"bacterial growth in medium, Day 4",[1]; [4],N
same,"bacterial growth in medium, Day 5",[1]; [4],N
same,"bacterial growth in medium, Day 6",[1]; [4],N
same,"bacterial growth in medium, Day 7",[1]; [4],G and N (2×)
same,"bacterial growth in medium, Day 8",[1]; [4],G and N (2×)
same,"bacterial growth in medium, Day 9",[1]; [4],G
same,"bacterial growth in medium, Day 10",[1]; [4],G
same,coating stability,[2]; CSA-131 2-NDSA in hydrogel coating,stable coatings
same,reaction with ETO during sterilization,[2]; CSA-131 2-NDSA particles (200 nm) in hydrogel coating,did not react with ETO
same,"bacterial growth in medium, Day 1",[3]; [5],N
same,"bacterial growth in medium, Day 2",[3]; [5],N
same,"bacterial growth in medium, Day 3",[3]; [5],N
same,"bacterial growth in medium, Day 4",[3]; [5],N
same,"bacterial growth in medium, Day 5",[3]; [5],N
same,"bacterial growth in medium, Day 6",[3]; [5],N
same,"bacterial growth in medium, Day 7",[3]; [5],N
same,"bacterial growth in medium, Day 8",[3]; [5],G
same,"bacterial growth in medium, Day 9",[3]; [5],G
same,"bacterial growth in medium, Day 10",[3]; [5],G
same,time coating prevented bacterial growth,"[3]; PA01, hydrogel coating ca. 10 microns, 10% CSA-131 2-NDSA",seven
same,bacteria from sonication of tube sections (biofilm),PA01,no bacteria were detected
same,bacteria in collected effluent from tubes,PA01,no bacteria were detected
